Experimental data from US20260092179A1, “GENETICALLY MODIFIED HOST CELLS PRODUCING VIOLACEIN, ANALOGUES, AND DERIVATIVES THEREOF” (OCTARINE BIO APS, priority 2022, published 2026).

Key:
[1] = Acidic pH stability of dyed fabrics (colour fastness, ΔE); assay type: physicochemical; details: pH 5 with HCl
Procedure: (§1) In order to assess the stability and colour fastness of violacein and violacein derivatives dyed onto fabrics, dyed fabrics were subjected to a number of conditions. Fabrics were dyed according to Example 18 and colour coordinates and colour change before and after exposure to a given condition were determined as described in Example 18. To measure temperature stability, fabrics were incubated in an oven set to 80° c. for 4 h. To measure stability under acid and alkaline conditions, fabrics were fully submerged in water solutions set to pH 8 with NaOH and pH 5 with HCl and incubated at room temperature for 30 minutes. Fabrics were then incubated at 37° c. for 4 h. To measure stability during laundering, fabrics were washed at 30° c. under the “mix” setting of a Siemens IQ300 washing machine, then dried in a Siemens IQ300 dryer until dry. To measure artificial light stability, fabrics were placed under an LED lamp at room temperature for 16 h. To measure UV light stability, fabrics were placed under a UV lamp at room temperature for 1 h.

[2] = Alkaline pH stability of dyed fabrics (colour fastness, ΔE); assay type: physicochemical; details: pH 8 with NaOH
Procedure: as §1

[3] = tested on: E. coli DH5a; assay: Antimicrobial activity of dyed Nylon 6,6 fabric: final OD600 and % inhibition; assay type: cell-based
Procedure: (§2) Violacein is reported as being a potent antibiotic, capable of inhibiting the growth of a wide range of microbial kingdoms including bacteria, yeast, fungi, viruses, protozoa and nematode. […] To test this, overnight cultures of wild-type E. coli DH5a and S. cerevisiae S228c strains were diluted in 5 mL of cultivation media (LB for E. coli, minimal media for S. cerevisiae) to a starting OD600 of 0.1. 1.5×1.5 cm dyed Nylon 6,6 fabric strips were sterilized by submerging in 75% ethanol for 15 mins and air drying in a laminar air flow hood before adding to each culture (with undyed Nylon 6,6 fabric as a negative control). […] This experiment provides evidence that all violacein derivatives display antimicrobial properties.

[4] = tested on: S. cerevisiae S228c; assay: as above; assay type: cell-based
Procedure: as §2

[5] = UV absorption capability (absorbance maxima, UV-A, UV-B, UV-C absorption) by HPLC; assay type: physicochemical
Procedure: The software Agilent Openlab CDS Chemstation Rev.
Violacein is reported as being a potent UV absorbent able to effectively absorb UV radiation, however, much less is known about the other violacein derivatives. To investigate the potential of using violacein and violacein derivatives as UV inhibitors and to potentially impart UV protection to fabrics, the UV absorption spectra of each compound was analyzed by HPLC and the total absorption capability at each of the most relevant UV wavelengths quantified.
For the quantification of UV absorption capacity of the compound of interest, a chromatographic separation on the F5 column and a gradient of water/acetonitrile containing 0.05% formic acid was run according to Example 5). […] The compounds were quantified based on the signal at 230 nm, using calibration curves of authentic analytical standards.
The UV absorption capacity is represented in mAU.min/mM. UV-A, UV-B and UV-C represent the most relevant regions where UV protection is required. UV-C is the most harmful type of UV radiation and can be generated by inorganic sources. UV-B radiation predominantly comes from the suns rays and is responsible for sun burn. UV-A radiation is also derived predominantly from the suns rays, and while UV-A radiation is less harmful than UV-B or UV-C but is much more prevalent.

[6] = Acrylic, before and after the stability test
[7] = Bleached cotton, before and after the stability test
[8] = Diacetate, before and after the stability test
[9] = Nylon 6,6, before and after the stability test
[10] = Polyester, before and after the stability test
[11] = Wool, before and after the stability test

L ([1]; Acrylic, After test): 66.03 | a ([1]; Acrylic, After test): 2.78 | b ([1]; Acrylic, After test): 0.02 | L ([1]; Acrylic, Before test): 65.53 | a ([1]; Acrylic, Before test): 2.41 | b ([1]; Acrylic, Before test): 0.93 | ΔE [1, 6]: 1.10 | L ([1]; Bleached cotton, After test): 59.6 | a ([1]; Bleached cotton, After test): 2.72 | b ([1]; Bleached cotton, After test): −7.71 | L ([1]; Bleached cotton, Before test): 59.65 | a ([1]; Bleached cotton, Before test): 3.71 | b ([1]; Bleached cotton, Before test): −6.68 | ΔE [1, 7]: 1.43 | L ([1]; Diacetate, After test): 45.59 | a ([1]; Diacetate, After test): 9.13 | b ([1]; Diacetate, After test): −11.74 | L ([1]; Diacetate, Before test): 45.97 | a ([1]; Diacetate, Before test): 8.41 | b ([1]; Diacetate, Before test): −13 | ΔE [1, 8]: 1.50 | L ([1]; Nylon 6,6, After test): 34.94 | a ([1]; Nylon 6,6, After test): 5.43 | b ([1]; Nylon 6,6, After test): −20.31 | L ([1]; Nylon 6,6, Before test): 34.82 | a ([1]; Nylon 6,6, Before test): 5.47 | b ([1]; Nylon 6,6, Before test): −20.22 | ΔE [1, 9]: 0.16 | L ([1]; Polyester, After test): 68.04 | a ([1]; Polyester, After test): 1.96 | b ([1]; Polyester, After test): −1.34 | L ([1]; Polyester, Before test): 66.71 | a ([1]; Polyester, Before test): 3.52 | b ([1]; Polyester, Before test): −2.04 | ΔE [1, 10]: 2.17 | L ([1]; Wool, After test): 69.34 | a ([1]; Wool, After test): 1.2 | b ([1]; Wool, After test): 0.61 | L ([1]; Wool, Before test): 69.04 | a ([1]; Wool, Before test): 0.77 | b ([1]; Wool, Before test): 1.2 | ΔE [1, 11]: 0.79 | L ([2]; Acrylic, After test): 63.85 | a ([2]; Acrylic, After test): 2.52 | b ([2]; Acrylic, After test): 0.06 | L ([2]; Acrylic, Before test): 65.79 | a ([2]; Acrylic, Before test): 3.11 | b ([2]; Acrylic, Before test): 0.28 | ΔE [2, 6]: 2.04 | L ([2]; Bleached cotton, After test): 60.76 | a ([2]; Bleached cotton, After test): 3.22 | b ([2]; Bleached cotton, After test): −7.53 | L ([2]; Bleached cotton, Before test): 59.94 | a ([2]; Bleached cotton, Before test): 2.69 | b ([2]; Bleached cotton, Before test): −8.23 | ΔE [2, 7]: 1.20 | L ([2]; Diacetate, After test): 44.97 | a ([2]; Diacetate, After test): 7.85 | b ([2]; Diacetate, After test): −11.19 | L ([2]; Diacetate, Before test): 43.93 | a ([2]; Diacetate, Before test): 8.84 | b ([2]; Diacetate, Before test): −14.67 | ΔE [2, 8]: 3.76 | L ([2]; Nylon 6,6, After test): 33.91 | a ([2]; Nylon 6,6, After test): 5.25 | b ([2]; Nylon 6,6, After test): −19.35 | L ([2]; Nylon 6,6, Before test): 34.13 | a ([2]; Nylon 6,6, Before test): 6.3 | b ([2]; Nylon 6,6, Before test): −20.23 | ΔE [2, 9]: 1.39 | L ([2]; Polyester, After test): 68.28 | a ([2]; Polyester, After test): 1.01 | b ([2]; Polyester, After test): −0.5 | L ([2]; Polyester, Before test): 66.44 | a ([2]; Polyester, Before test): 4.15 | b ([2]; Polyester, Before test): −2.11 | ΔE [2, 10]: 3.98 | L ([2]; Wool, After test): 66.99 | a ([2]; Wool, After test): −0.18 | b ([2]; Wool, After test): 1.19 | L ([2]; Wool, Before test): 67.52 | a ([2]; Wool, Before test): 0.35 | b ([2]; Wool, Before test): 1.01 | ΔE [2, 11]: 0.77 | UV absorption capability in the UV-C region ([5]; 245 nm): particularly high | Total UV absorption UV C (245 nm) ([5]; AUC of HPLC peak at 245 nm per mM): 8876.8 (mAU · min)/mM | Total UV absorption UV B (305 nm) ([5]; AUC of HPLC peak at 305 nm per mM): 1011.6 (mAU · min)/mM | Total UV absorption UV A (360 nm) ([5]; AUC of HPLC peak at 360 nm per mM): 411.4 (mAU · min)/mM
Structure (SMILES): O=C1NC(c2c[nH]c3ccc(O)cc23)=C/C1=C1\C(=O)Nc2ccccc21 [violacein]
Final OD600 ([3]; E. coli cultured overnight at 30° c. with dyed Nylon 6,6 fabric strip, starting OD600 0.1): 4.16 | % Inhibition ([3]; E. coli, dyed Nylon 6,6 fabric vs undyed fabric control): 20.24% | growth inhibition of E. coli ([3]; dyed Nylon 6,6 fabric strip in culture, overnight 30° c., OD600 versus undyed fabric): most inhibited | Final OD600 ([4]; S. cerevisiae cultured overnight at 30° c. with dyed Nylon 6,6 fabric strip, starting OD600 0.1): 4.64 | % Inhibition ([4]; S. cerevisiae, dyed Nylon 6,6 fabric vs undyed fabric control): 13.43%
